Test results: patent publication US20040186066A1, “Method of treatment with nelfinavir” (AGOURON PHARMACEUTICALS, INC., priority 2003, published 2004)
Structures can show the parent of a compound that is named as a salt. Where two headings read alike, the source gives them in different places.

Experiments:
[1] = Example 1: phase I crossover food-effect study, single-dose pharmacokinetics of nelfinavir 250 mg tablets (total kilocalories and fat); type: in vivo, human (normal healthy volunteers); settings: for half-life / AUC / Cmax / Tmax / AUC(0-t) / AUC(0-inf): human, plasma, 1250 mg; for AUC: read-out: AUC12; for AUC(0-t): read-out: AUC(0-tlqc), least-squares mean; for AUC(0-inf): read-out: AUC(0-∞) (AUCinf), least-squares mean
Description: A phase I, randomized, open-label crossover study to evaluate the impact of total kilocalories and fat content on single-dose pharmacokinetic parameters of the nelfinavir 250 mg tablet formulation in normal healthy volunteers was performed. Healthy volunteers entered the study and received the following treatment in random order at least 1 week apart: 1) 5×250 mg nelfinavir tablets, fasted 2) 5×250 mg nelfinavir tablets (breakfast meal 1, 125 Kcal/20% fat=low cal/low fat) 3) 5×250 mg nelfinavir tablets (breakfast meal 2, 500 Kcal/20% fat=medium cal/low fat) 4) 5×250 mg nelfinavir tablets (breakfast meal 3, 1000 Kcal/50% fat=high cal/high fat). Plasma concentrations of nelfinavir and its active hydroxy-t-butylamide metabolite (M8) were measured by validated high performance liquid chromatography (HPLC) methods. Pharmacokinetic parameters were determined from plasma concentration-time data using standard methods. Nelfinavir was administered as five 250-mg tablets with 240 mL of water. All subjects received a standardized snack the evening they were admitted to the in-patient facility. For the fasting evaluation, subjects were required to complete an overnight fast of at least 10 hours prior to dosing in the morning. For the fed pharmacokinetic evaluations, subjects were required to complete an overnight fast of at least 10 hours, prior to receiving the protocol-specific standardized breakfast meal (that is, Meal 1, Meal 2, or Meal 3). Subjects were given 30 minutes to complete their standardized breakfast meal. Dosing was performed in the morning, immediately following the subject's completion of the standardized breakfast meal and after the subject's pre-dose pharmacokinetic specimen had been collected. Subjects could not ingest water 1 hour prior to or 1 hour after dosing. A standardized lunch was given at least 4 hours after the morning dose and a standardized dinner was given at least 10 hours after the morning dose. For pharmacokinetic sampling, blood samples, 5 mL each, were collected into heparinized vacuum tubes (green top tubes) via an indwelling catheter or direct venipuncture. The actual time of each collection was recorded on the source document. The timing of each sample collection was as follows: predose and at 0.5, 1, 2, 3, 4, 6, 8, and 12 hours postdose on Days 1, 8,15, and 22. Pharmacokinetic parameter values were calculated using WinNonlin Pro Version 2.1. Individual nelfinavir plasma concentrations were used to predict steady-state plasma concentrations during BID administration with meals of various Kcal content. WinNonlin Pro Version 3.2 noncompartmental superposition was used for this simulation. Predicted steady-state Cmax and Cmin values were compared.

[2] = cited from earlier work
[3] = nelfinavir and nelfinavir plus M8; full breakfast 610 kcal vs light breakfast 271 kcal; once-daily with low-dose ritonavir; cited from earlier work
[4] = single dose; cited from earlier work
[5] = meals 517 to 759 Kcal, 153 to 313 Kcal from fat; cited from earlier work
[6] = po, nelfinavir, 1250 mg single oral dose with high calorie/high fat meal (1000 Kcal/50% fat)
[7] = po, nelfinavir, 1250 mg single oral dose with low calorie/low fat meal (125 Kcal/20% fat)
[8] = po, nelfinavir, 1250 mg single oral dose with moderate calorie/low fat meal (500 Kcal/20% fat)
[9] = po, nelfinavir, 1250 mg single oral dose, fasting (reference)
[10] = nelfinavir, 125 kcal/20% fat relative to fasting
[11] = nelfinavir, 500 kcal/20% fat relative to fasting
[12] = nelfinavir, 1000 kcal/50% fat relative to fasting
[13] = nelfinavir, high calorie/high fat meal (1000 Kcal/50% fat) vs fasting
[14] = nelfinavir, low calorie/low fat meal (125 Kcal/20% fat) vs fasting
[15] = nelfinavir, moderate calorie/low fat meal (500 Kcal/20% fat) vs fasting

Cc1c(O)cccc1C(=O)N[C@@H](CSc1ccccc1)[C@H](O)CN1C[C@H]2CCCC[C@H]2C[C@H]1C(=O)NC(C)(C)C (relative stereo) [nelfinavir, [3S-(3R*, 4aR*, 8aR*, 2′S*, 3′S*)]-2-[2′ hydroxy-3′-phenylthiomethyl-4′-aza-5′-oxo-5′-(2″-methyl-3″-hydroxy-phenyl)pentyl]-decahydroiso-quinoline-3-N-t-butylcarboxamide methanesulfonic acid salt]
half-life ([1]; oral, nelfinavir, across fasting and the three meals, read-out: half-life (t½), range of mean values): 3.6 to 5.6 h | AUC ([1]; oral, nelfinavir, food intake 125 kcal/20% fat): 20000 ng·h/mL | Cmax ([1]; oral, nelfinavir, food intake 125 kcal/20% fat, read-out: Cmax (Table 5)): 3160 ng/mL | AUC ([1]; oral, nelfinavir, food intake 500 kcal/20% fat): 25500 ng·h/mL | Cmax ([1]; oral, nelfinavir, food intake 500 kcal/20% fat, read-out: Cmax (Table 5)): 3670 ng/mL | AUC ([1]; oral, nelfinavir, food intake 1000 kcal/50% fat): 38900 ng·h/mL | Cmax ([1]; oral, nelfinavir, food intake 1000 kcal/50% fat, read-out: Cmax (Table 5)): 5200 ng/mL | Tmax ([1]; oral, nelfinavir, high calorie meal, read-out: mean tmax longer relative to fasting subjects): ~2 h | Tmax ([1]; oral, nelfinavir, low calorie meal, read-out: mean tmax longer relative to fasting subjects): ~1 h | Tmax ([1]; oral, nelfinavir, moderate calorie meal, read-out: mean tmax longer relative to fasting subjects): ~1.5 h | Cmax ([1]; po, nelfinavir in plasma, 1250 mg single oral dose with high calorie/high fat meal (1000 Kcal/50% fat), read-out: Cmax, least-squares mean): 5200 ng/mL | Cmax ([1]; po, nelfinavir in plasma, 1250 mg single oral dose with low calorie/low fat meal (125 Kcal/20% fat), read-out: Cmax, least-squares mean): 3160 ng/mL | Cmax ([1]; po, nelfinavir in plasma, 1250 mg single oral dose with moderate calorie/low fat meal (500 Kcal/20% fat), read-out: Cmax, least-squares mean): 3670 ng/mL | Cmax ([1]; po, nelfinavir in plasma, 1250 mg single oral dose, fasting (reference), read-out: Cmax, least-squares mean): 1570 ng/mL | AUC(0-t) [1, 6]: 38900 ng·h/mL | AUC(0-inf) [1, 6]: 55300 ng·h/mL | half-life ([1]; po, nelfinavir, 1250 mg single oral dose with high calorie/high fat meal (1000 Kcal/50% fat), read-out: t1/2 (terminal half-life), least-squares mean (converted)): 5.63 h | Tmax ([1]; po, nelfinavir, 1250 mg single oral dose with high calorie/high fat meal (1000 Kcal/50% fat), read-out: tmax, least-squares mean): 3.98 h | AUC(0-t) [1, 7]: 20000 ng·h/mL | AUC(0-inf) [1, 7]: 23100 ng·h/mL | half-life ([1]; po, nelfinavir, 1250 mg single oral dose with low calorie/low fat meal (125 Kcal/20% fat), read-out: t1/2 (terminal half-life), least-squares mean (converted)): 3.59 h | Tmax ([1]; po, nelfinavir, 1250 mg single oral dose with low calorie/low fat meal (125 Kcal/20% fat), read-out: tmax, least-squares mean): 3.02 h | AUC(0-t) [1, 8]: 25500 ng·h/mL | AUC(0-inf) [1, 8]: 33400 ng·h/mL | half-life ([1]; po, nelfinavir, 1250 mg single oral dose with moderate calorie/low fat meal (500 Kcal/20% fat), read-out: t1/2 (terminal half-life), least-squares mean (converted)): 4.77 h | Tmax ([1]; po, nelfinavir, 1250 mg single oral dose with moderate calorie/low fat meal (500 Kcal/20% fat), read-out: tmax, least-squares mean): 3.87 h | AUC(0-t) [1, 9]: 9040 ng·h/mL | AUC(0-inf) [1, 9]: 10600 ng·h/mL | half-life ([1]; po, nelfinavir, 1250 mg single oral dose, fasting (reference), read-out: t1/2 (terminal half-life), least-squares mean (converted)): 4.1 h | Tmax ([1]; po, nelfinavir, 1250 mg single oral dose, fasting (reference), read-out: tmax, least-squares mean): 2.18 h | AUC ([1]; po, nelfinavir, 1250 mg single oral dose, fasting): 9040 ng·h/mL | Cmax ([1]; po, nelfinavir, 1250 mg single oral dose, fasting, read-out: Cmax (Table 5)): 1570 ng/mL | AUC(0-∞) (AUCinf), least-squares mean ([1]; nelfinavir, 1250 mg single oral dose with high calorie/high fat meal (1000 Kcal/50% fat)): 55300 ng·h/mL | AUC(0-∞) (AUCinf), least-squares mean ([1]; nelfinavir, 1250 mg single oral dose with low calorie/low fat meal (125 Kcal/20% fat)): 23100 ng·h/mL | AUC(0-∞) (AUCinf), least-squares mean ([1]; nelfinavir, 1250 mg single oral dose with moderate calorie/low fat meal (500 Kcal/20% fat)): 33400 ng·h/mL | C12 (concentration at 12 hours postdose), mean ([1]; nelfinavir, 1250 mg single oral dose, 125 Kcal/20% fat): 0.65 µg/mL | C12 (concentration at 12 hours postdose), mean ([1]; nelfinavir, 1250 mg single oral dose, 500 Kcal/20% fat): 1.19 µg/mL | C12 (concentration at 12 hours postdose), mean ([1]; nelfinavir, 1250 mg single oral dose, 1000 Kcal/50% fat): 2.07 µg/mL | C12 (concentration at 12 hours postdose), mean ([1]; nelfinavir, 1250 mg single oral dose, fasting): 0.41 µg/mL | AUC12 (×fasting) [1, 10]: 2.2 X | AUCinf (×fasting) [1, 10]: 2.2 X | Cmax (×fasting) [1, 10]: 2.0 X | AUC12 (×fasting) [1, 11]: 2.8 X | AUCinf (×fasting) [1, 11]: 3.1 X | Cmax (×fasting) [1, 11]: 2.3 X | AUC12 (×fasting) [1, 12]: 4.3 X | AUCinf (×fasting) [1, 12]: 5.2 X | Cmax (×fasting) [1, 12]: 3.3 X | C12 values compared with Cmax in fasting subjects ([1]; nelfinavir, dose with the high calorie/high fat meal, FIG. 1): higher than Cmax values in fasting subjects | mean Cmax higher relative to fasting subjects ([1]; nelfinavir, high calorie meal): 3.3 fold | AUC(0-tlqc) ratio (100% × test/reference) [1, 13]: 430% | AUC(0-∞) ratio (100% × test/reference) [1, 13]: 520% | Cmax ratio (100% × test/reference) [1, 13]: 331% | t1/2 ratio (100% × test/reference) [1, 13]: 139% | tmax ratio (100% × test/reference) [1, 13]: 183% | mean Cmax higher relative to fasting subjects ([1]; nelfinavir, low calorie meal): 2 fold | AUC(0-tlqc) ratio (100% × test/reference) [1, 14]: 221% | AUC(0-∞) ratio (100% × test/reference) [1, 14]: 218% | Cmax ratio (100% × test/reference) [1, 14]: 201% | t1/2 ratio (100% × test/reference) [1, 14]: 87.5% | tmax ratio (100% × test/reference) [1, 14]: 139% | bioavailability higher relative to fasting subjects, based on AUC(0-∞) ([1]; nelfinavir, meal 1 (125 Kcal/20% fat)): 2.2 fold | bioavailability higher relative to fasting subjects, based on AUC(0-∞) ([1]; nelfinavir, meal 2 (500 Kcal/20% fat)): 3.1 fold | bioavailability higher relative to fasting subjects, based on AUC(0-∞) ([1]; nelfinavir, meal 3 (1000 Kcal/50% fat)): 5.2 fold | AUC increase over fasting state ([1]; nelfinavir, meals containing 500-1000 kcal and 20-50% fat): 3-5 fold | mean Cmax higher relative to fasting subjects ([1]; nelfinavir, moderate calorie meal): 2.3 fold | AUC(0-tlqc) ratio (100% × test/reference) [1, 15]: 282% | AUC(0-∞) ratio (100% × test/reference) [1, 15]: 314% | Cmax ratio (100% × test/reference) [1, 15]: 234% | t1/2 ratio (100% × test/reference) [1, 15]: 116% | tmax ratio (100% × test/reference) [1, 15]: 178% | oral bioavailability ([2]; animals fasted overnight): 29% | oral bioavailability ([2]; fed rats, dogs and monkeys (meal 30 minutes before drug administration)): 43% | effect of meal consumption on AUC24h, corr and Cmin [3]: significant effect | AUC under fasting conditions as % of AUC with food [4]: 27-50% | AUC, fed compared to fasting [5]: two to three-fold higher | maximum plasma concentrations, fed compared to fasting [5]: two to three-fold higher
